This is an account of results in ChEMBL document CHEMBL1148243, “Indoline derivatives as 5-HT(2C) receptor agonists” (Bioorg Med Chem Lett, 2004).

For test [1], the system named is Rattus norvegicus. The test is described as follows: Ability of compound to decrease food intake in rats after subcutaneous administration. Particulars: sc, read-out: MED. The test is classed as functional.
In test [2] the test system is Rattus norvegicus. Nature of the test: Ability of compound to decrease food intake in rats after oral administration. Particulars: read-out: MED. It counts as functional.
Test [3] addresses T1, 5-hydroxytryptamine receptor 2A (Homo sapiens, UniProt P28223). The test is described as follows: Functional activity against human 5-hydroxytryptamine 2A receptor expressed in CHO cells using fluorometric imaging plate reader. The test is classed as cell-based.
The target of test [4] is T2, 5-hydroxytryptamine receptor 2B (Homo sapiens, UniProt P41595). Nature of the test: Functional activity against human 5-hydroxytryptamine 2B receptor expressed in CHO cells using fluorometric imaging plate reader. The test is classed as cell-based.
Test [5] has as its target T3, 5-hydroxytryptamine receptor 2C (Homo sapiens, UniProt P28335).
T3 sequence (P28335 whole entry): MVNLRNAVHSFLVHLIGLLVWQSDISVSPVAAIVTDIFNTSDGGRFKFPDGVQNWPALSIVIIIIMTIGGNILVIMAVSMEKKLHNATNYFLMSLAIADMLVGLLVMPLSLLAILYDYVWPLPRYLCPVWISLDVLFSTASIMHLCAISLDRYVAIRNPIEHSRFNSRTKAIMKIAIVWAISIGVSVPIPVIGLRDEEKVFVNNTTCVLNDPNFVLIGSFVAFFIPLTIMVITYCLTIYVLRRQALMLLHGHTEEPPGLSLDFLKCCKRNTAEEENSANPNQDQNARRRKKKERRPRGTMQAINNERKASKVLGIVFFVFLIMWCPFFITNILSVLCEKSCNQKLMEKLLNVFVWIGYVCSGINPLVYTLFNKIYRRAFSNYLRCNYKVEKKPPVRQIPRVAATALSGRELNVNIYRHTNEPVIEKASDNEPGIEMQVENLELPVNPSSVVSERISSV
Nature of the test: Affinity for human 5-hydroxytryptamine 2C receptor expressed in mammalian cell line.

Test [6] addresses T2, 5-hydroxytryptamine receptor 2B. The test is described as follows: Relative efficacy against human 5-hydroxytryptamine 2B receptor expressed in CHO cells using fluorometric imaging plate reader relative to 10 uM 5-HT. The test is classed as functional, cell-based.
Test [7] concerns the target T3, 5-hydroxytryptamine receptor 2C. The test is described as follows: Functional activity against human 5-hydroxytryptamine 2C receptor expressed in CHO cells using fluorometric imaging plate reader. It counts as cell-based.
In test [8] the target is T2, 5-hydroxytryptamine receptor 2B. The test is described as follows: Affinity for human 5-hydroxytryptamine 2B receptor expressed in mammalian cell line.
Test [9] deals with T1, 5-hydroxytryptamine receptor 2A. The test is described as follows: Relative efficacy against human 5-hydroxytryptamine 2A receptor expressed in CHO cells using fluorometric imaging plate reader relative to 10 uM 5-HT. It counts as functional, cell-based.
Test [10] shares this target. The test is described as follows: Affinity for human 5-hydroxytryptamine 2A receptor expressed in mammalian cell line.

T2 sequence (P41595 whole entry): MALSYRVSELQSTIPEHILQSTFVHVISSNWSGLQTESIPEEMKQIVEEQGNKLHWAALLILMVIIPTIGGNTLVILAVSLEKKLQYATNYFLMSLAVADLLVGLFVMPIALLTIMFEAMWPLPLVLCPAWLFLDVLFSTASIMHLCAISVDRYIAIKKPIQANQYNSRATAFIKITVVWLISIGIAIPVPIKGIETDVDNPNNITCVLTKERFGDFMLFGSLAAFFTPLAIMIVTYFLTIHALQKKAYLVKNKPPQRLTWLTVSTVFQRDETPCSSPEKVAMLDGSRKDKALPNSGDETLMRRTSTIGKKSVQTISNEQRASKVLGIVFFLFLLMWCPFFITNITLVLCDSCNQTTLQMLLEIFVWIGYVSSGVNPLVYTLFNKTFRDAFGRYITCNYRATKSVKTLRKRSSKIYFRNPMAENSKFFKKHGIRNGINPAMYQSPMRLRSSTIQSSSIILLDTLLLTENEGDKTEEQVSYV
T1 sequence (P28223 whole entry): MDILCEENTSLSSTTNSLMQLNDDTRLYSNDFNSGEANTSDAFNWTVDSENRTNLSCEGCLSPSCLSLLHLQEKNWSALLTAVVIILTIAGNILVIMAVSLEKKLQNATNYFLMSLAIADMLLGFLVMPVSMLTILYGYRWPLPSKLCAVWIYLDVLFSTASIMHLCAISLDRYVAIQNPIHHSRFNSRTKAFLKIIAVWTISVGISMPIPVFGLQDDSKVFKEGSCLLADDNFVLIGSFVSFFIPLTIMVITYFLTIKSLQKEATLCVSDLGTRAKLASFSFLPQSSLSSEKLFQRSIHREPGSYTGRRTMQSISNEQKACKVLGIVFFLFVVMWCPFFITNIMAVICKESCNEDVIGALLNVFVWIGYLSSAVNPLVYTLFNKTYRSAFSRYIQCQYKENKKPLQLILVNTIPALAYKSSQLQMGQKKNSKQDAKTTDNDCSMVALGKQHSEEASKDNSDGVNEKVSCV

As for `Clc1cccc(N2CCNCC2)c1` [CHLOROPHENYLPIPERAZINE], the results for the minimal effective dose in [1] and in test [2] were 1 mg/kg and 10 mg/kg, respectively.
Usually EC50 stands for the concentration that produces a half-maximal response. Higher therefore signals lower potency in that assay. In general, Ki refers to the equilibrium dissociation constant of an inhibitor or competing ligand from its target. A high value points to a looser hold on the target. On to `CCSc1ccc2c(c1)N(C[C@H](C)N)CC2`, for which the EC50 in test [3] was 378 nM; in [4] it was 72 nM; in test [7], 40 nM. Further, the results for the Ki in test [5], in test [8] and in test [10] were 16 nM, 189 nM and 184 nM, respectively. In addition, the Relative efficacy in test [6] worked out at 67%; in test [9], 71%.
For `C[C@H](N)Cn1ccc2cc(F)c(Cl)cc21`, the EC50 in [4] was 4.3 nM; in test [7] it was 18 nM. Further, the Ki in test [5] was 2.3 nM; in test [8], 5.1 nM; in test [10], 38 nM. The values for the Relative efficacy in test [6] and in [9] were 71% and 72%, respectively.
`C[C@H](N)CN1CCc2cc(F)c(I)cc21`: the figures for the EC50 in test [3], in test [4] and in [7] were 432 nM, 22 nM and 64 nM, respectively. For the same compound, the values for the Ki in test [5], in [8] and in test [10] were 17 nM, 38 nM and 139 nM, respectively. The Relative efficacy in test [6] is 71%; in [9] it was 54%.
For `CCSc1cc2c(cc1F)CCN2C[C@H](C)N`, the EC50 is 181 nM in test [3], 31 nM in test [4] and 21 nM in test [7]. Besides, the Ki in [5] is 6.4 nM; in test [8], 62 nM; in test [10], 58 nM. Besides, the Relative efficacy in test [6] was 66%; in [9] it was 80%.
On to `C[C@H](N)CN1CCc2ccc(Br)cc21`, for which the EC50 in test [3] was determined as 719 nM; in test [4], 11 nM; in test [7], 44 nM. Also, the minimal effective dose was found to be 3 mg/kg in test [1] and 30 mg/kg in [2]. The values for the Ki in [5], in [8] and in test [10] were 24 nM, 46 nM and 351 nM, respectively. In addition, the Relative efficacy in [6] was 78%; in test [9], 54%.
With `C[C@H](N)CN1CCc2cc(F)c(C(F)(F)F)cc21`, the EC50 in test [3] was determined as 1060 nM; in [4] it was 49 nM; in test [7], 130 nM. The figures for the Ki in [5], in test [8] and in test [10] were 26 nM, 88 nM and 432 nM, respectively. Besides, the Relative efficacy in test [6] amounted to 86%; in test [9] it was 45%.
In the case of `C[C@H](N)CN1CCc2ccc(Cl)cc21`, the EC50 came out at 602 nM in [3], 6.5 nM in [4] and 44 nM in test [7]. In addition, the Ki worked out at 13 nM in test [5], 54 nM in test [8] and 364 nM in test [10]. Further, the Relative efficacy in [6] is 76%; in [9], 55%.
With `CSc1ccc2c(c1)N(C[C@H](C)N)CC2`, the values for the 50% effective concentration (EC50) in test [3], in [4] and in test [7] were 164 nM, 10 nM and 26 nM, respectively. In addition, the Ki stood at 5.7 nM in test [5], 89 nM in test [8] and 171 nM in test [10]. For the same compound, the Relative efficacy came out at 78% in test [6] and 72% in test [9].
Regarding `C[C@H](N)CN1CCc2ccc3c(c21)CCO3`, the EC50 in [3] stood at 62 nM; in test [4], 3 nM; in test [7], 4.5 nM. The results for the minimal effective dose in test [1] and in [2] were 0.1 mg/kg and 1 mg/kg, respectively. For the same compound, the Ki in test [5] was 8.7 nM; in [8] it was 49 nM; in test [10] it was 112 nM. Besides, the Relative efficacy was found to be 74% in test [6] and 81% in test [9].
Consider `C[C@H](N)CN1CCc2cc(F)c(Cl)cc21`, for which the EC50 is 367 nM in [3], 7.3 nM in test [4] and 31 nM in test [7]. Besides, the Ki in test [5] was determined as 14 nM; in test [8], 31 nM; in [10] it was 167 nM. Further, the Relative efficacy is 77% in test [6] and 66% in test [9].
Turning to `CSc1cc2c(cc1F)CCN2C[C@H](C)N`, the EC50 in test [3] was found to be 76 nM; in [4], 4.1 nM; in test [7], 6.7 nM. Further, the minimal effective dose is 0.3 mg/kg in test [1] and 3 mg/kg in test [2]. Further, the Ki turned out to be 3.2 nM in [5], 21 nM in test [8] and 53 nM in [10]. The Relative efficacy turned out to be 72% in test [6] and 87% in test [9].
Turning to `C[C@H](N)CN1CCc2ccc3c(c21)CCCO3`, the EC50 in test [3] was 125 nM; in test [4], 36 nM; in test [7] it was 28 nM. The Ki in test [5] is 38 nM; in [8], 355 nM; in test [10], 395 nM. In addition, the Relative efficacy worked out at 67% in test [6] and 71% in test [9].
